Experimental data reported in patent US20070072920A1, “Phenylethylamine analogs and their use for treating glaucoma” (Alcon, Inc., priority 2005, published 2007).
Counter-ions that a name gives are not always drawn. Like-named read-outs stand apart in the source and are kept apart here.

Experiments:
[1] = target: T1, 5-HT2 receptor in A7r5 rat vascular smooth muscle cells (Rattus norvegicus, UniProt P14842); test: 5-HT2 Functional Assay: Calcium Mobilization (FLIPR); format: cell-based; conditions: for Emax: read-out: Efficacy (Emax %)
T1 construct: endogenous in cells; host or cells: A7r5 rat vascular smooth muscle cells
T1 sequence (P14842 whole entry): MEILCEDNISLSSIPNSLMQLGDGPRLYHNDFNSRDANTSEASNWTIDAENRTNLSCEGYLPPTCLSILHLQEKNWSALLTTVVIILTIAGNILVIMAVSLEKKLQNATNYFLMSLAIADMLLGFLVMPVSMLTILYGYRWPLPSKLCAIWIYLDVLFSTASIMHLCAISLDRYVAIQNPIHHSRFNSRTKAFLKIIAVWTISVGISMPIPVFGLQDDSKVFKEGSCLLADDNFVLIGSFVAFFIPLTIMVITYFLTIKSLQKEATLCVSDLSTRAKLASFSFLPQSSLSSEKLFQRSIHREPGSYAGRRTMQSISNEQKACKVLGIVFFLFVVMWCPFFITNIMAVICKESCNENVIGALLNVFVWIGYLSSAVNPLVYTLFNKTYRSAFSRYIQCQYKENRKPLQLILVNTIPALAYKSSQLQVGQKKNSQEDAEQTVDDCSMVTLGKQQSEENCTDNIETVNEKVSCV
Description: 5-HT2 Functional Assay: Calcium Mobilization
The receptor-mediated mobilization of intracellular calcium ([Ca^2+]i) was studied using the Fluorescence Imaging Plate Reader (FLIPR) instrument. Rat vascular smooth muscle cells, A7r5, were grown in a normal media of DMEM/10% FBS and 10 μg/ml gentamycin. Confluent cell monolayers were trypsinized, pelleted, and re-suspended in normal media. Cells were seeded in a 50 μL volume at a density of 20,000 cells per well in a black wall, 96-well tissue culture plate and grown for 2 days. On the day of the experiment, one vial of FLIPR Calcium Assay Kit dye was re-suspended in 50 ml of a FLIPR buffer consisting of Hank's Balanced Salt Solution (HBSS), 20 mM HEPES, and 2.5 mM probenecid, pH 7.4. Cells were loaded with the calcium-sensitive dye by addition of an equal volume (50 μl) to each well of the 96-well plate and incubated with dye for 1 h at 23° C. Typically, test compounds were stored at […] in 50% DMSO/50% Ethanol solvent. Compounds were diluted 1:50 in 20% DMSO/20% Ethanol. For dose-response experiments, compounds were diluted 1:50 in FLIPR buffer and serially diluted 1:10 to give a 5- or 8-point dose-response curve.
At the beginning of an experimental run, a signal test was performed to check the basal fluorescence signal from the dye-loaded cells and the uniformity of the signal across the plate. The basal fluorescence was adjusted between 8000-12000 counts by modifying the exposure time, the camera F-stop, or the laser power. The instrument settings for a typical assay were as follows: laser power 0.3-0.6 W, camera F-stop F/2, and exposure time 0.4 sec. An aliquot (25 μl) of the test compound was added to the existing 100 μl dye-loaded cells at a dispensing speed of 50 μl/sec. Fluorescence data were collected in real-time at 1.0 sec intervals for the first 60 sec and at 6.0 sec intervals for an additional 120 sec. Responses were measured as peak fluorescence intensity minus basal and where appropriate were expressed as a percentage of a maximum 5-HT-induced response.

5-HT2 receptors = 5-HT2 receptors (Rattus norvegicus, UniProt P14842); test: 5-HT2 Receptor Binding Assay ([125I]DOI competition); set-up: species or system rat or human; conditions: inhibition of [125I]DOI binding, cerebral cortex homogenates
Chain of 5-HT2 receptors (P14842 whole entry): as above
Description: 5-HT2 Receptor Binding Assay
The assay mixture is incubated for 1 hour at 23° C. in polypropylene tubes and the assays terminated by rapid vacuum filtration over Whatman GF/B glass fiber filters previously soaked in 0.3% polyethyleneimine using ice-cold buffer. Test compounds (at different concentrations) are substituted for methiothepin. Filter-bound radioactivity is determined by scintillation spectrometry on a beta counter.

[2] = test system: lasered (hypertensive) eyes of conscious cynomolgus monkeys; test: Acute IOP Response in Lasered (Hypertensive) Eyes of Conscious Cynomolgus Monkeys; format: in vivo, cynomolgus monkey; conditions: 300 μg topical; for % IOP change 1 hr: 1 hr after dose; for % IOP change 3 hr: 3 hr after dose; for % IOP change 6 hr: 6 hr after dose
Description: Acute IOP Response in Lasered (Hypertensive) Eyes of Conscious Cynomolgus Monkeys
Intraocular pressure (IOP) can be determined with an Alcon Pneumatonometer after light corneal anesthesia with 0.1% proparacaine. Eyes are washed with saline after each measurement. After a baseline IOP measurement, test compound is instilled in one 30 μL aliquot to the right eyes only of nine cynomolgus monkeys. Vehicle is instilled in the right eyes of six additional animals. Subsequent IOP measurements are taken at 1, 3, and 6 hours.

[3] = percentage of maximum 5-HT-induced response, A7r5 cells

Molecule | EC50 [1] [nM] | Emax [1, 3] [%] | other results
COc1cc(CC(C)N)c(OC)cc1CC[S+](C)[O-] (stereo not shown) [Example 16, 2-[4-(2-Methanesulfinyl-ethyl)-2,5-dimethoxy-phenyl]-1-methyl-ethylamine hydrochloride] | 870 | 40 | 
COc1cc(C)c(OC(C)=O)cc1CC(C)N (stereo not shown) [Example 9, Acetic acid 5-(2-Amino-propyl)-4-methoxy-2-methyl-phenyl ester hydrochloride] | 4900 | 37 | 
COc1cc(C[C@@H](C)N)c(OC)cc1CCCSC [Example 5, (R)-2-[2,5-Dimethoxy-4-(3-methylsulfanyl-propyl)-phenyl]-1-methyl-ethylamine hydrochloride] | 37 | 21 | 
COc1cc(CC(C)N)c(OC)cc1CSC (stereo not shown) [Example 14, 2-(2,5-Dimethoxy-4-methylsulfanylmethyl-phenyl)-1-methyl-ethylamine; hydrochloride] | 68 | 52 | 
COc1cc(C[C@@H](C)N)c(OC)cc1CC1=NCCS1 [Example 10, (R)-2-[4-(4,5-Dihydro-thiazol-2-ylmethyl)-2,5-dimethoxy-phenyl]-1-methyl-ethylamine hydrochloride] | 600 | 52 | 
COc1ccc(Cc2cc(OC)c(C[C@@H](C)N)cc2OC)cc1 [Example 18, (R)-2-[2,5-Dimethoxy-4-(4-methoxy-benzyl)-phenyl]-1-methyl-ethylamine hydrochloride] | 220 | 23 | 
(R)-2-(4-Furan-2-ylmethyl-2,5-dimethoxy-phenyl)-1-methyl-ethylamine hydrochloride [Example 11] |  |  | EC50 ([1]; intracellular calcium mobilization, A7r5 cells, FLIPR, read-out: EC50): 120 nM; Efficacy (Emax %) [1, 3]: 55%; IC50 (5-HT2 receptors): 0.36 nM
COc1cc(C[C@@H](C)N)c(OC)cc1Cc1nc(C)no1 [Example 2, (R)-2-[2,5-Dimethoxy-4-(3-methyl-[1,2,4]oxadiazol-5-ylmethyl)-phenyl]-1-methyl-ethylamine hydrochloride] | 1060 | 23 | 
COc1cc(CC(C)N)c(OC)cc1CCSC.Cl (stereo not shown) [Example 4, 2-[2,5-Dimethoxy-4-(2-methylsulfanyl-ethyl)-phenyl]-1-methyl-ethylamine hydrochloride] | 94 | 51 | % IOP change 1 hr [2]: −3.5%; % IOP change 3 hr [2]: −14.8%; % IOP change 6 hr [2]: −16.1%
COCSCCc1cc(OC)c(C[C@@H](C)N)cc1OC [Example 7, (R)-2-[2,5-Dimethoxy-4-(2-methoxymethylsulfanyl-ethyl)-phenyl]-1-methyl-ethylamine hydrochloride] | 91 | 32 | 
COc1cccc(Cc2cc(OC)c(C[C@@H](C)N)cc2OC)c1 [Example 20, (R)-2-[2,5-Dimethoxy-4-(3-methoxy-benzyl)-phenyl]-1-methyl-ethylamine hydrochloride] | 257 | 53 | 
COc1cc(C)c(OS(C)(=O)=O)cc1CC(C)N (stereo not shown) [Example 8, Methanesulfonic acid 5-(2-amino-propyl)-4-methoxy-2-methyl-phenyl ester hydrochloride] | 890 | 30 | 
COc1cc(C[C@@H](C)N)c(OC)cc1CC1CCCS1 (stereo partly drawn) [Example 13, (R)-2-[2,5-Dimethoxy-4-(tetrahydro-thiophen-2-ylmethyl)-phenyl]-1-methyl-ethylamine hydrochloride] | 560 | 81 | 
COc1cc(C[C@@H](C)N)c(OC)cc1CC1CCCO1 (stereo partly drawn) [Example 12, (R)-2-[2,5-Dimethoxy-4-(tetrahydro-furan-2-ylmethyl)-phenyl]-1-methyl-ethylamine hydrochloride] | 82 | 73 | 
COc1cc(C[S+](C)[O-])c(OC)cc1CC(C)N (stereo not shown) [Example 15, 2-(4-Methanesulfinylmethyl-2,5-dimethoxy-phenyl)-1-methyl-ethylamine trifluoroacetate] | 7600 | 37 | 
CCOC(=O)Cc1cc(OC)c(C[C@@H](C)N)cc1OC [Example 1, [(R)-4-(2-Amino-propyl)-2,5-dimethoxy-phenyl]-acetic acid ethyl ester hydrochloride] | 1100 | 24 | 
COCCCc1cc(OC)c(C[C@@H](C)N)cc1OC [Example 6, (R)-2-[2,5-Dimethoxy-4-(3-methoxy-propyl)-phenyl]-1-methyl-ethylamine hydrochloride] | 22 | 45 | 
COc1cc(C[C@@H](C)N)c(OC)cc1Cc1ccc(Cl)cc1 [Example 21, (R)-2-[4-(4-Chloro-benzyl)-2,5-dimethoxy-phenyl]-1-methyl-ethylamine hydrochloride] | 963 | 39 | 
COc1ccccc1Cc1cc(OC)c(C[C@@H](C)N)cc1OC [Example 19, (R)-2-[2,5-Dimethoxy-4-(2-methoxy-benzyl)-phenyl]-1-methyl-ethylamine hydrochloride] | 660 | 22 | 
COCCc1cc(OC)c(C[C@@H](C)N)cc1OC.Cl [Example 3, (R)-2-[2,5-Dimethoxy-4-(2-methoxy-ethyl)-phenyl]-1-methyl-ethylamine hydrochloride] | 78 | 53 | % IOP change 1 hr [2]: −5.2%; % IOP change 3 hr [2]: −16.3%; % IOP change 6 hr [2]: −21.5%
COc1cc(C[C@@H](C)N)c(OC)cc1Cc1ccccc1 [Example 17, (R)-2-(4-Benzyl-2,5-dimethoxy-phenyl)-1-methyl-ethylamine hydrochloride] | 310 | 43 | 
